In patent US20250064875A1, “PHARMACEUTICAL COMPOSITION FOR PREVENTING OR TREATING MUSCLE DISEASES” (KOSA BIO INC., priority 2021, published 2025):

Assays:
sarcopenia animal model [1] = test: Sarcopenia animal model, excised tissue weights; type: in vivo, mice; conditions: day 14; for Thymus: dexamethasone 20 mg/kg i.p., extract 300 mg/kg or FL 0.5 mg/kg oral daily
Description: Specifically, male C57BL/6 mice (7 weeks old, Samtako Bio Korea, Korea) were acclimatized, and their body weight (g), lean body weight (g), fat mass (g), and body fat percentage (%) were measured using dual-energy X-ray absorptiometry (DXA). […] A control group consisted of untreated 5 mice (normal mice) at day 0 of treatment.

sarcopenia animal model [2] = test: Sarcopenia animal model, body composition by DXA; type: in vivo, mice; conditions: for lean body weight / BMC / BMD(g/cm^2) / fat / fat(%) / tissue area(cm^2): DXA; for lean body weight: C57BL/6 mice, dexamethasone 20 mg/kg i.p. daily, extract 300 mg/kg or FL 0.5 mg/kg oral daily; for BMC / BMD(g/cm^2) / fat / fat(%) / tissue area(cm^2): same model and doses
Description: Specifically, male C57BL/6 mice (7 weeks old, Samtako Bio Korea, Korea) were acclimatized, and their body weight (g), lean body weight (g), fat mass (g), and body fat percentage (%) were measured using dual-energy X-ray absorptiometry (DXA). […] A control group consisted of untreated 5 mice (normal mice) at day 0 of treatment. On days 7 and 14 of treatment, the mice were scanned using DXA to measure body weight, lean body weight, fat mass, and body fat percentage; the results are presented in FIG. 14 and Tables 2 and 3.

TNFα = test: Inhibition of TNFα expression (qPCR) in dexamethasone-treated myotubes; type: cell-based; conditions: cells treated with FL, FV or FI 2.5-20 μg/mL, FIG. 8
Description: The cells treated with elderberry extracts as in Experimental Example 1-2 were further treated with trypsin to collect only the cells. After centrifugation of the collected cells at 3,000 rpm for 5 minutes, the supernatant was removed and total RNA was extracted by sequentially treating with RiboEx™ and Hybrid-R™ (GeneAll, Korea). The concentration of the extracted RNA was measured using a Nanodrop, and this RNA was used as a template to synthesize cDNA. The cDNA was synthesized using a mixture of RNA, oligo-(dT) primers, and 2×HyperScript™ RT Master Mix (GeneAll, Korea). Subsequently, real-time PCR (qPCR) was performed using the synthesized cDNA as a template and Power SYBR™ Green PCR Master Mix under standard conditions to confirm the expression of TNFα.
Cells treated with FL, FV, or FI as in Experimental Example 1-3 were trypsinized to collect only the cells, and the level of TNFα expression was examined using the same conditions and methods as described in Experimental Example 2-1.

MuRF-1 = test: Inhibition of muscle protein expression (qPCR): MuRF-1; type: cell-based; conditions: cells treated with FL, FV or FI 2.5-20 μg/mL
Description: (§1) The ability of the elderberry extracts and monosaccharide-BCAA conjugate compounds prepared above to inhibit the expression of muscle proteins was confirmed using the qPCR method. Specifically, muscle RING-finger protein-1 (MuRF-1) and atrogin-1, which are both markers of muscle atrophy, and myostatin, which a negative regulator of skeletal muscle mass, were used as target muscle proteins.
(§2) Using the cells treated with the hot water extract, 50% ethanol extract, or 100% ethanol extract of elderberry described in Experimental Example 1-2, qPCR was performed as described above.
(§3) Using the cells treated with FL, FV, or FI as described in Experimental Example 1-3, qPCR was performed as previously outlined.

myostatin = test: Inhibition of muscle protein expression (qPCR): myostatin; type: cell-based; conditions: cells treated with FL, FV or FI 2.5-20 μg/mL
Description: as §1, §2, §3

[3] = tested on: C2C12 myoblast cells differentiated to myotubes; test: Inhibition of myocyte apoptosis: MTT cell viability in dexamethasone-treated myotubes; type: cell-based; conditions: 10 μM dexamethasone, FL, FV, FI 2.5-20 μg/mL or amino acid controls, 24 hours, FIGS. 4-6
Description: Firstly, C2C12 myoblast cells (from ATCC, USA) were cultured in DMEM supplemented with 10% fetal bovine serum (FBS) and 1% antibiotic-antimycotic at 37° C. under a 5% CO2 atmosphere. Thereafter, the medium was replaced with one containing 2% horse serum (HS) for incubation of additional 72 hours. […] Post-treatment, the cells were observed again under a microscope. The results of the differentiation to myotubes are presented in FIG. 1, and the observations post-dexamethasone treatment in FIG. 2.
After 24 hours, the culture medium was removed, and MTT reagent (5 mg/mL) was added to each well and incubated for 4 hours. Subsequently, DMSO was added to dissolve any precipitates, and the absorbance was read at 570 nm.
Apart from FL, which was found in elderberry extracts, fructose-valine (FV) and fructose-isoleucine (FI) conjugates in which the branched-chain amino acid valine or isoleucine is conjugated to the monosaccharide fructose were also tested for inhibition against myocyte apoptosis. Experiments were conducted in the same manner and conditions as in Experiment Example 1-2, except that FL, FV, or FI was used at concentrations of 2.5, 5, 10, or 20 μg/mL instead of elderberry extracts. As controls, amino acids such as leucine, valine, isoleucine, tryptophan, arginine, tyrosine, glycine, lysine, methionine, phenylalanine, or threonine were used. The cell viability calculated from the treatments with FL, FV, or FI are presented in FIG. 4, and results from amino acid treatments in FIGS. 5 and 6.

atrogin-1 = test: Inhibition of muscle protein expression (qPCR): atrogin-1; type: cell-based; conditions: cells treated with FL, FV or FI 2.5-20 μg/mL
Description: as §1, §2, §3

TM3 cell line = test: Promotion of testosterone secretion (ELISA) in H2O2-treated Leydig cells; type: cell-based; conditions: 500 μM H2O2 6 hours; extract 12.5-100 μg/mL or FL 1.25-10 μg/mL; ELISA of medium; FIG. 9
Description: First, the TM3 cell line (from ATCC, USA), which is Leydig cells, were cultured using a standard method. The cultured cells were treated with 500 μM of hydrogen peroxide (H2O2) for 6 hours, followed by the addition of either 12.5, 25, 50, or 100 μg/mL of the hot water extract of elderberry or 1.25, 2.5, 5, or 10 μg/mL of FL (fructose-leucine). Subsequently, ELISA was performed using the cultured cell medium to determine the levels of testosterone, and the results are presented in FIG. 9.

[4] = excised tissue weight, same model and doses
[5] = result in words, sarcopenia mice, 14 days

SMILES	Thymus (sarcopenia animal model [1]; excised tissue weight)	Muscle (sarcopenia animal model [1]; [4])	Spleen (sarcopenia animal model [1]; [4])	lean body weight (sarcopenia animal model [2]; Day 0)	BMC (sarcopenia animal model [2]; Day 0)	BMD(g/cm^2) (sarcopenia animal model [2]; Day 0)	fat (sarcopenia animal model [2]; Day 0)	fat(%) (sarcopenia animal model [2]; Day 0)	tissue area(cm^2) (sarcopenia animal model [2]; Day 0)	lean body weight (sarcopenia animal model [2]; Day 7)	BMC (sarcopenia animal model [2]; Day 7)	BMD(g/cm^2) (sarcopenia animal model [2]; Day 7)	fat (sarcopenia animal model [2]; Day 7)	fat(%) (sarcopenia animal model [2]; Day 7)	tissue area(cm^2) (sarcopenia animal model [2]; Day 7)	level of TNFα expression increased by dexamethasone (TNFα)	mRNA expression level of MuRF-1 increased by dexamethasone (MuRF-1)	mRNA expression level of myostatin increased by dexamethasone (myostatin)	cell viability reduced by dexamethasone [3]	mRNA expression level of atrogin-1 increased by dexamethasone (atrogin-1)	further results
C[C@@H]1C[C@H]2[C@@H]3CCC4=CC(=O)C=C[C@]4(C)[C@@]3(F)[C@@H](O)C[C@]2(C)[C@@]1(O)C(=O)CO [Dexamethasone, dexamethasone, reference compound]	0.009 ± 0.004 g	0.501 ± 0.064 g	0.026 ± 0.01 g	18.93 ± 1.42 g	0.23 ± 0.13 g	0.057 ± 0.012 g/cm^2	1.44 ± 0.16 g	7.1 ± 1.07%	13.32 ± 2.03 cm^2	17.53 ± 1.36 g	0.16 ± 0.02 g	0.052 ± 0.004 g/cm^2	1.13 ± 0.34 g	5.99 ± 1.53%	12.41 ± 1.31 cm^2						lean body weight (sarcopenia animal model [2]; Day 14): 17.47 ± 0.29 g; BMC (sarcopenia animal model [2]; Day 14): 0.16 ± 0.01 g; BMD(g/cm^2) (sarcopenia animal model [2]; Day 14): 0.057 ± 0.004 g/cm^2; fat (sarcopenia animal model [2]; Day 14): 1.56 ± 0.34 g; fat(%) (sarcopenia animal model [2]; Day 14): 8.17 ± 1.58%; tissue area(cm^2) (sarcopenia animal model [2]; Day 14): 13.97 ± 0.51 cm^2
CC[C@H](C)[C@H](NCC1(O)OC[C@@H](O)[C@@H](O)[C@@H]1O)C(=O)O (stereo partly drawn) [FI, fructose-isoleucine]																significantly suppressed	significantly decreased	significantly decreased	significantly restored	significantly decreased	
CC(C)CC(NCC1(O)OCC(O)C(O)C1O)C(=O)O (stereo not drawn) [FL, fructose-leucine]	0.009 ± 0.002 g	0.683 ± 0.18 g	0.028 ± 0.009 g	18.31 ± 1.43 g	0.19 ± 0.04 g	0.053 ± 0.004 g/cm^2	1.27 ± 0.25 g	6.49 ± 1.03%	13.13 ± 1.08 cm^2	18.05 ± 0.44 g	0.20 ± 0.03 g	0.059 ± 0.009 g/cm^2	1.43 ± 0.53 g	7.31 ± 2.47%	13.83 ± 0.53 cm^2	significantly suppressed	significantly decreased	significantly decreased	significantly restored	significantly decreased	Liver (sarcopenia animal model [1]; [4]): 1.375 ± 0.117 g; weights of the various tissues (sarcopenia animal model [1]; result in words): restored to levels similar to those of the normal control group; concentration of testosterone suppressed by hydrogen peroxide (TM3 cell line): significantly restored; lean body weight (sarcopenia animal model [2]; Day 14): 18.34 ± 0.56 g; BMC (sarcopenia animal model [2]; Day 14): 0.19 ± 0.04 g; BMD(g/cm^2) (sarcopenia animal model [2]; Day 14): 0.056 ± 0.006 g/cm^2; fat (sarcopenia animal model [2]; Day 14): 1.29 ± 0.19 g; fat(%) (sarcopenia animal model [2]; Day 14): 6.57 ± 0.76%; tissue area(cm^2) (sarcopenia animal model [2]; Day 14): 13.66 ± 0.92 cm^2; body weight of the mice (sarcopenia animal model [2]; [5]): restored; lean body weight of the mice (sarcopenia animal model [2]; [5]): restored; tissue areas of the mice (sarcopenia animal model [2]; [5]): restored
CC(C)[C@H](NCC1(O)OC[C@@H](O)[C@H](O)C1O)C(=O)O (stereo partly drawn) [FV, fructose-valine]																significantly suppressed	significantly decreased	significantly decreased	significantly restored	significantly decreased	
